# US7988972B2, “Immunoreactive peptides from Epstein-Barr virus” (Ortho-Clinical Diagnostics, Inc., priority 1993, dated 2011)
# “And” between values parts separate entries of the source, which are not always exact repeats. Equal values may be shown once.
# Columns and labels:
# [1] = system: anti-EA antibodies in human sera; assay: Serological reactivity of different sera (VCA-EA-, VCA+EA+, VCA+EA-) with p50.10; type: binding
# Experimental: Serological reactivity of different sera (VCA−EA−, VCA+EA+, VCA+EA−) with the p50.10 synthetic peptide was performed as described in Example 1, according to Pothen, et al., supra.
# [2] = system: anti-EA antibodies in human sera; assay: ELISA, serological reactivity of human sera with p17 synthetic peptides; type: binding; settings: for No. Positive/No. Tested / No. Positive/No. Tested (%): sera 1:10
# Experimental: (§1) ELISA. The ELISA for measuring specific antibodies to p17, p50 or to the synthetic peptides was performed as previously described in detail (Luka et al., J. Immunol. Methods, 67:145-156, 1984). Aliquots of different antigen concentrations were diluted in 0.5M Na2CO3 buffer, pH 9.5, added to wells in polystyrene microtiter plates (Linbro) and the plates incubated overnight at 4° C. Following this incubation period, the plates were washed 5× with Tris-HCl, pH 7.4, containing 0.05% Tween 20, 50 mM NaCl and 100 mg per liter albumin (Sigma) and dried for 20 minutes at room temperature. The plates were screened with different anti-EA-R or EA-D antibody positive human sera and the monoclonal antibody to p17 or p50 to identify the optimal concentration of antigen to be used in the serological studies. Alkaline-phosphatase-labelled goat anti-human IgG (Sigma) or goat anti-mouse IgG (Sigma) was used as the indicator system.
# For the testing of human sera for antibodies to native p17, p50 or to the synthetic peptides, sera were diluted 1:10 in ELISA buffer, added in 0.1 ml volumes to wells coated with optimal concentrations of antigen and the plates were incubated for 60 minutes at room temperature. After 4 washes with ELISA buffer, 100 μl of alkaline phosphatase-labelled goat anti-human IgG in ELISA buffer were added to each well and the plates were incubated at room temperature for 1 hour. Following four more washes in buffer, the enzyme reaction was performed by dissolving 1 mg per ml of Sigma alkaline phosphatase substrate in 1M diethanolamine buffer, pH 10.4, containing 1 mM MgCl2 and 0.1 mM ZnCl2, and 100 μl of the mixture was then added to each well. The reaction was allowed to proceed for 30 minutes at 37° C. and then the plates were screened directly with a microplate reader, TITERTEK MULTISKAN MC (Flow), at 420 nm. Readings above 0.1 which was 2× the background noted with antibody-negative sera were considered positive reactions.
# Studies were designed to determine the serological reactivity with the p17 synthetic epitopes. For this purpose, 87 anti-EA antibody-positive sera (titer>160) were tested in the ELISA against optimal pre-determined concentrations (2 μg per well) of the p17 synthetic peptides. The sera were obtained from 28 patients with African Burkift's lymphoma (ABL) collected during the Ghanian Burkitt Tumor Project, and from 28 North American patients with intermediate large cell, or high grade non-Hodgkin's lymphoma (NANHL). The donors included both HIV-positive and HIV-negative individuals. In addition, sera from 31 North American nasopharyngeal carcinoma (NANPC) patients were examined in this study (Pearson, G. R., et al., Cancer, 51:260-268, 1983). To validate the EA specificity of the serological reactions, the results with these sera were compared with results with 23 VCA and EA antibody-negative sera and 30 VCA-antibody-positive, EA-antibody negative sera. In contrast to the T-cell proliferation results, all three synthetic peptides reacted with the EA antibody-positive sera to varying degrees with p17.1 again being the dominant epitope. Approximately 60% of the anti-EA-positive sera reacted with p17.1, 48% with p17.2 and 23% with p17.3.
# Seventy-one percent of the sera from ABL patients and 93% of the sera from patients with NANHL reacted with p17.1 as opposed to 23% of the sera from North American patients with NPC.
# [3] = system: anti-EA-R and anti-EA-D sera; assay: ELISA, anti-EA-R and anti-EA-D sera against p17.1 and p50.10; type: binding, human; settings: individual sera, donors Anti-EA-negative (VCA-negative); values >0.2 significant
# Experimental: as §1
# For the testing of human sera for antibodies to native p17, p50 or to the synthetic peptides, sera were diluted 1:10 in ELISA buffer, added in 0.1 ml volumes to wells coated with optimal concentrations of antigen and the plates were incubated for 60 minutes at room temperature. […] The reaction was allowed to proceed for 30 minutes at 37° C. and then the plates were screened directly with a microplate reader, TITERTEK MULTISKAN MC (Flow), at 420 nm. […]
# [4] = serum donors: Lymphoma (total), EA titers >160
# [5] = serum donors: Nasopharyngeal carcinoma (North American), EA titers >160
# [6] = serum donors: Non-Hodgkin's lymphoma (North American), EA titers >160
# [7] = serum donors: Normal (VCA + EA-)
sequence,measurement,setting,value
"KQKHPKKVKQAFNPL [p50.10, synthetic peptide from 50 Kd early antigen (EA-D) region of EBV]",reactivity with anti-EA antibody negative sera,[1],lack of reactivity
"ETFTETWNRFITHTE [p17.1, synthetic peptide from 17 Kd early antigen (EA-R) region of EBV]",share of anti-EA-positive sera that reacted,"[2]; 87 anti-EA antibody-positive sera (titer>160), 2 μg peptide per well",Approximately 60%
same,No. Positive/No. Tested,"[2]; serum donors: Burkitt's lymphoma (African), EA titers >160",20/28
same,No. Positive/No. Tested,[2]; [4],46/56
same,No. Positive/No. Tested (%),[2]; [4],82%
same,No. Positive/No. Tested,[2]; [5],7/31
same,No. Positive/No. Tested (%),[2]; [5],23%
same,No. Positive/No. Tested,[2]; [6],26/28
same,No. Positive/No. Tested (%),[2]; [6],93%
same,No. Positive/No. Tested,[2]; [7],0/30
same,No. Positive/No. Tested (%),[2]; [7],0%
same,No. Positive/No. Tested,[2]; serum donors: Normal (VCA − EA-),0/23
same,ELISA (420 nm) OD readings,[3],0.024 and 0.071 and 0.027
